We go through twelve compounds from ChEMBL document CHEMBL3124753, “Synthesis of 2-amino-3-cyano-4H-chromen-4-ylphosphonates and their anticancer properties” (2014).

Holding throughout (format): functional
The test system of assay [1] is A549. Description: Growth inhibition of human A549 cells at 4 uM after 24 hrs by MTT assay relative to control. The note with it: A549, 24 h, read-out: GI.
Assay [2] relates to A549. Description: Growth inhibition of human A549 cells at 2 uM after 24 hrs by MTT assay relative to control. The conditions noted are these: A549, 24 h, read-out: GI. (Formazan colour is commonly taken as a measure of viable cells.)
Assay [3] concerns A549. Description: Growth inhibition of human A549 cells at 20 uM after 24 hrs by MTT assay relative to control. The conditions noted are these: A549, 24 h, read-out: GI.
The test system of assay [4] is A549. Description: Growth inhibition of human A549 cells at 40 uM after 24 hrs by MTT assay relative to control. The conditions noted are these: A549, 24 h, read-out: GI.
The test system of assay [5] is KB. Description: Growth inhibition of human KB cells at 40 uM after 24 hrs by MTT assay relative to control. The conditions noted are these: read-out: GI.
Assay [6] concerns KB. Description: Growth inhibition of human KB cells at 2 uM after 24 hrs by MTT assay relative to control. The note with it: read-out: GI.
Assay [7] concerns KB. Description: Growth inhibition of human KB cells at 20 uM after 24 hrs by MTT assay relative to control. The note with it: read-out: GI.
The subject of assay [8] is KB. Description: Growth inhibition of human KB cells at 4 uM after 24 hrs by MTT assay relative to control. The conditions noted are these: read-out: GI.

With `CCOP(=O)(OCC)C1C(C#N)=C(N)Oc2ccccc21` (stereo unspecified), the inhibition of growth at 4 µM in the assay on A549 [1] was 6.25%; in the assay with KB [8], 15.2%. Further, the inhibition of growth at 2 µM with A549 [2] was determined as 4.12%; in the assay with KB [6] it was 0.12%. Besides, the inhibition of growth at 20 µM amounted to 18.4% in the assay with A549 [3] and 19.4% in the assay on KB [7]. The inhibition of growth at 40 µM is 51% in the assay on A549 [4] and 60.1% in the assay on KB [5].

In the case of `CC(C)OP(=O)(OC(C)C)C1C(C#N)=C(N)Oc2ccccc21` (stereo unspecified), the figures for the inhibition of growth at 4 µM in the assay with A549 [1] and in the assay on KB [8] were 1.2% and 5.21%, respectively. For the same compound, the inhibition of growth at 2 µM in the assay with A549 [2] was determined as 0.82%; in the assay with KB [6], 2.5%. Further, the inhibition of growth at 20 µM in the assay with A549 [3] stood at 3.5%; in the assay with KB [7], 8.93%. The inhibition of growth at 40 µM amounted to 5.47% in the assay with A549 [4] and 9.22% in the assay with KB [5].

For the compound `CCCCOP(=O)(OCCCC)C1C(C#N)=C(N)Oc2ccccc21` (stereo unspecified), the inhibition of growth at 4 µM with A549 [1] came to 7.82%; in the assay with KB [8] it was 6.8%. Besides, the inhibition of growth at 2 µM with A549 [2] was found to be 3.51%; in the assay with KB [6], 6.45%. Further, the inhibition of growth at 20 µM in the assay on A549 [3] was 21.7%; in the assay with KB [7], 17.6%. The inhibition of growth at 40 µM stood at 30.2% with A549 [4] and 40.4% in the assay on KB [5].

Consider `CCOP(=O)(OCC)C1C(C#N)=C(N)Oc2ccc(Br)cc21` (stereo unspecified), for which the inhibition of growth at 4 µM turned out to be 9.05% in the assay on A549 [1] and 10% with KB [8]. Further, the inhibition of growth at 2 µM with A549 [2] was determined as 0.52%; in the assay with KB [6], 6.8%. Besides, the inhibition of growth at 20 µM in the assay with A549 [3] came to 20.3%; in the assay on KB [7], 12%. Further, the inhibition of growth at 40 µM in the assay on A549 [4] was 60.8%; with KB [5], 81.8%.

`CC(C)OP(=O)(OC(C)C)C1C(C#N)=C(N)Oc2ccc(Br)cc21` (stereo unspecified): the inhibition of growth at 4 µM with A549 [1] is 1.6%; in the assay on KB [8], 15%. In addition, the inhibition of growth at 2 µM in the assay on A549 [2] turned out to be 0.32%; with KB [6], 9.45%. Besides, the figures for the inhibition of growth at 20 µM with A549 [3] and in the assay with KB [7] were 10.5% and 20.3%, respectively. Moreover, the inhibition of growth at 40 µM in the assay on A549 [4] was determined as 12.5%; with KB [5] it was 25.4%.

Consider `CCCCOP(=O)(OCCCC)C1C(C#N)=C(N)Oc2ccc(Br)cc21` (stereo unspecified), for which the inhibition of growth at 4 µM amounted to 8.94% with A549 [1] and 10.3% in the assay with KB [8]. Moreover, the results for the inhibition of growth at 2 µM with A549 [2] and in the assay with KB [6] were 0.52% and 9.5%, respectively. The values for the inhibition of growth at 20 µM with A549 [3] and in the assay on KB [7] were 17.5% and 11.5%, respectively. The inhibition of growth at 40 µM is 26.7% in the assay on A549 [4] and 45.2% in the assay with KB [5].

On to `CCOP(=O)(OCC)C1C(C#N)=C(N)Oc2ccc([N+](=O)[O-])cc21` (stereo unspecified), for which the inhibition of growth at 4 µM in the assay on A549 [1] stood at 2.89%; in the assay on KB [8] it was 6.08%. The inhibition of growth at 2 µM came out at 0.33% in the assay on A549 [2] and 4.5% in the assay with KB [6]. Moreover, the inhibition of growth at 20 µM was 3.1% with A549 [3] and 6.18% in the assay with KB [7]. In addition, the inhibition of growth at 40 µM in the assay on A549 [4] is 3.9%; with KB [5], 8.29%.

Consider `CC(C)OP(=O)(OC(C)C)C1C(C#N)=C(N)Oc2ccc([N+](=O)[O-])cc21` (stereo unspecified), for which the inhibition of growth at 4 µM is 6.25% with A549 [1] and 8.5% in the assay on KB [8]. Besides, the inhibition of growth at 2 µM in the assay with A549 [2] worked out at 2.5%; in the assay with KB [6] it was 6.07%. Further, the inhibition of growth at 20 µM in the assay with A549 [3] came out at 16.8%; with KB [7], 16.2%. In addition, the inhibition of growth at 40 µM worked out at 26.9% with A549 [4] and 23.3% in the assay on KB [5].

With `CCCCOP(=O)(OCCCC)C1C(C#N)=C(N)Oc2ccc([N+](=O)[O-])cc21` (stereo unspecified), the figures for the inhibition of growth at 4 µM in the assay on A549 [1] and in the assay on KB [8] were 8.21% and 6%, respectively. Besides, the inhibition of growth at 2 µM with A549 [2] is 6.3%; with KB [6] it was 0.58%. Further, the inhibition of growth at 20 µM in the assay with A549 [3] came to 7.94%; in the assay on KB [7] it was 14.5%. Further, the values for the inhibition of growth at 40 µM in the assay with A549 [4] and in the assay with KB [5] were 15.8% and 33.8%, respectively.

In the case of `CCOP(=O)(OCC)C1C(C#N)=C(N)Oc2c1cccc2C(C)(C)C` (stereo unspecified), the values for the inhibition of growth at 4 µM in the assay with A549 [1] and with KB [8] were 4.34% and 7.4%, respectively. The inhibition of growth at 2 µM in the assay on A549 [2] came out at 3.72%; in the assay on KB [6] it was 5.65%. Also, the inhibition of growth at 20 µM in the assay with A549 [3] was determined as 12%; in the assay on KB [7], 11.5%. Further, the inhibition of growth at 40 µM with A549 [4] is 14.9%; in the assay on KB [5], 27.3%.

As to `CC(C)OP(=O)(OC(C)C)C1C(C#N)=C(N)Oc2c1cccc2C(C)(C)C` (stereo unspecified), the figures for the inhibition of growth at 4 µM with A549 [1] and in the assay on KB [8] were 8.23% and 6.5%, respectively. In addition, the figures for the inhibition of growth at 2 µM with A549 [2] and with KB [6] were 3.1% and 5.5%, respectively. The results for the inhibition of growth at 20 µM in the assay with A549 [3] and with KB [7] were 13.9% and 12.5%, respectively. For the same compound, the results for the inhibition of growth at 40 µM in the assay with A549 [4] and in the assay with KB [5] were 14.9% and 20.6%, respectively.

Turning to `CCCCOP(=O)(OCCCC)C1C(C#N)=C(N)Oc2c1cccc2C(C)(C)C` (stereo unspecified), the values for the inhibition of growth at 4 µM in the assay with A549 [1] and in the assay on KB [8] were 10.5% and 13.9%, respectively. In addition, the values for the inhibition of growth at 2 µM in the assay on A549 [2] and in the assay with KB [6] were 9.5% and 11.2%, respectively. In addition, the figures for the inhibition of growth at 20 µM in the assay with A549 [3] and with KB [7] were 11.2% and 14.5%, respectively. Besides, the inhibition of growth at 40 µM is 13.7% in the assay on A549 [4] and 19.8% in the assay with KB [5].
